Reference: article PMC11249646, “Small-Molecule Disruptors of the Interaction between Calcium- and Integrin-Binding Protein 1 and Integrin αIIbβ3 as Novel Antiplatelet Agents” (ACS Pharmacology & Translational Science, 2024)

target: T1, CIB1 and αIIb interaction (CIB1-GST : F-αIIb peptide) (Homo sapiens, UniProt Q99828); assay: FP assay, 1536-well qHTS format (primary and confirmatory screen); assay type: binding; details: Table S3, confirmatory screen, YES/NO call
T1 construct: made in house; host or cells: BL-21 plus RIL cells (E. coli)
T1 sequence (Q99828 1-191): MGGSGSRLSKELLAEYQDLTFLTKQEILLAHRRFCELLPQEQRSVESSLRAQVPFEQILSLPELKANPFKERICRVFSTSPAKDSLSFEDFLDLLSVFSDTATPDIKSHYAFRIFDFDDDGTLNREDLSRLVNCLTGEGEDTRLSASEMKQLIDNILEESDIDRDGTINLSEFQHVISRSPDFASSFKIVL

SMILES | Confirm? (confirmatory screen)
CCCCNC(=S)N/N=C1\C(=O)Nc2ccccc21.O=C(O)C(F)(F)F [NCGC00229539-01] | YES
O=C(O)C(F)(F)F.O=C(O)c1ccc(-c2ccc3ncnc(N4CCOCC4)c3c2)o1 [NCGC00229619-01] | YES
O=C(O)C(F)(F)F.O=C1CCCC2=C1C(c1n[nH]cc1Cl)NC(Nc1nc3ccccc3o1)=N2 (centres unmarked) [NCGC00238624-04] | YES

same assay, conditions: Table S3, confirmatory screen, qHTS curve class; a negative sign marks inhibitory curves

SMILES | Curve Class (confirmatory screen)
O=C(O)C(F)(F)F.O=C1Nc2ccccc2/C1=N/NC(=S)Nc1ccc(C(=O)O)cc1 [NCGC00229530-01] | 4
CCCCNC(=S)N/N=C1\C(=O)Nc2ccccc21.O=C(O)C(F)(F)F [NCGC00229539-01] | -2.4
O=C(O)C(F)(F)F.O=C(O)c1ccc(-c2ccc3ncnc(N4CCOCC4)c3c2)o1 [NCGC00229619-01] | -1.4
O=C(O)C(F)(F)F.O=C1CCCC2=C1C(c1n[nH]cc1Cl)NC(Nc1nc3ccccc3o1)=N2 (centres unmarked) [NCGC00238624-04] | -1.2

same assay, conditions: Table S3, confirmatory screen; negative = inhibition

SMILES | Efficacy (%) (confirmatory screen)
O=C(O)C(F)(F)F.O=C1Nc2ccccc2/C1=N/NC(=S)Nc1ccc(C(=O)O)cc1 [NCGC00229530-01] | -47
CCCCNC(=S)N/N=C1\C(=O)Nc2ccccc21.O=C(O)C(F)(F)F [NCGC00229539-01] | -49
O=C(O)C(F)(F)F.O=C(O)c1ccc(-c2ccc3ncnc(N4CCOCC4)c3c2)o1 [NCGC00229619-01] | -29
O=C(O)C(F)(F)F.O=C1CCCC2=C1C(c1n[nH]cc1Cl)NC(Nc1nc3ccccc3o1)=N2 (centres unmarked) [NCGC00238624-04] | -34

same assay, conditions: Table S3, confirmatory screen; read-out: IC50 [μM] (confirmatory screen)

SMILES | IC50 [µM]
CCCCNC(=S)N/N=C1\C(=O)Nc2ccccc21.O=C(O)C(F)(F)F [NCGC00229539-01] | 50.1
O=C(O)C(F)(F)F.O=C(O)c1ccc(-c2ccc3ncnc(N4CCOCC4)c3c2)o1 [NCGC00229619-01] | 10
O=C(O)C(F)(F)F.O=C1CCCC2=C1C(c1n[nH]cc1Cl)NC(Nc1nc3ccccc3o1)=N2 (centres unmarked) [NCGC00238624-04] | 25.1

same assay, conditions: qHTS FP screen hits, Table S2; negative = inhibition

SMILES | Efficacy (%)
O=C(O)C(F)(F)F.O=C1Nc2ccccc2/C1=N/NC(=S)Nc1ccc(C(=O)O)cc1 [NCGC00229530-01] | -32

same assay, conditions: qHTS FP screen hits, Table S2; read-out: IC50

SMILES | IC50 [µM]
O=C(O)C(F)(F)F.O=C1Nc2ccccc2/C1=N/NC(=S)Nc1ccc(C(=O)O)cc1 [NCGC00229530-01] | 8.9

same assay, conditions: qHTS primary screen hits, Table S2; negative = inhibition

SMILES | Efficacy (%)
CCCCNC(=S)N/N=C1\C(=O)Nc2ccccc21.O=C(O)C(F)(F)F [NCGC00229539-01] | -32
O=C(O)C(F)(F)F.O=C(O)c1ccc(-c2ccc3ncnc(N4CCOCC4)c3c2)o1 [NCGC00229619-01] | -16

same assay, conditions: qHTS primary screen hits, Table S2; negative sign = inhibitory curve; several classes where COUNT > 1

SMILES | Curve Class
CCCCNC(=S)N/N=C1\C(=O)Nc2ccccc21.O=C(O)C(F)(F)F [NCGC00229539-01] | -1.2
O=C(O)C(F)(F)F.O=C(O)c1ccc(-c2ccc3ncnc(N4CCOCC4)c3c2)o1 [NCGC00229619-01] | -1.4

same assay, conditions: qHTS primary screen hits, Table S2; read-out: IC50

SMILES | IC50 [µM]
CCCCNC(=S)N/N=C1\C(=O)Nc2ccccc21.O=C(O)C(F)(F)F [NCGC00229539-01] | 17.8
O=C(O)C(F)(F)F.O=C(O)c1ccc(-c2ccc3ncnc(N4CCOCC4)c3c2)o1 [NCGC00229619-01] | 4

target: T2, GST-CIB1 : F-scrambled peptide (Homo sapiens, UniProt Q99828); assay: FP scrambled-peptide counter screen, 1536-well format; assay type: binding; details: Table S3, counterscreen, YES/NO call
T2 construct: made in house; host or cells: BL-21 plus RIL cells (E. coli)
T2 sequence (Q99828 1-191): T1 sequence (Q99828 1-191)

SMILES | Confirm? (counterscreen)
O=C(O)C(F)(F)F.O=C1Nc2ccccc2/C1=N/NC(=S)Nc1ccc(C(=O)O)cc1 [NCGC00229530-01] | YES

same assay, conditions: Table S3, counterscreen, qHTS curve class; a negative sign marks inhibitory curves

SMILES | Curve Class (counterscreen)
O=C(O)C(F)(F)F.O=C1Nc2ccccc2/C1=N/NC(=S)Nc1ccc(C(=O)O)cc1 [NCGC00229530-01] | -1.2
CCCCNC(=S)N/N=C1\C(=O)Nc2ccccc21.O=C(O)C(F)(F)F [NCGC00229539-01] | -1.2
O=C(O)C(F)(F)F.O=C(O)c1ccc(-c2ccc3ncnc(N4CCOCC4)c3c2)o1 [NCGC00229619-01] | -2.4
O=C(O)C(F)(F)F.O=C1CCCC2=C1C(c1n[nH]cc1Cl)NC(Nc1nc3ccccc3o1)=N2 (centres unmarked) [NCGC00238624-04] | -1.2

same assay, conditions: Table S3, counterscreen; negative = inhibition

SMILES | Efficacy (%) (counterscreen)
O=C(O)C(F)(F)F.O=C1Nc2ccccc2/C1=N/NC(=S)Nc1ccc(C(=O)O)cc1 [NCGC00229530-01] | -65
CCCCNC(=S)N/N=C1\C(=O)Nc2ccccc21.O=C(O)C(F)(F)F [NCGC00229539-01] | -50
O=C(O)C(F)(F)F.O=C(O)c1ccc(-c2ccc3ncnc(N4CCOCC4)c3c2)o1 [NCGC00229619-01] | -53
O=C(O)C(F)(F)F.O=C1CCCC2=C1C(c1n[nH]cc1Cl)NC(Nc1nc3ccccc3o1)=N2 (centres unmarked) [NCGC00238624-04] | -54

same assay, conditions: Table S3, counterscreen; read-out: IC50 [μM] (counterscreen)

SMILES | IC50 [µM]
O=C(O)C(F)(F)F.O=C1Nc2ccccc2/C1=N/NC(=S)Nc1ccc(C(=O)O)cc1 [NCGC00229530-01] | 12.6
CCCCNC(=S)N/N=C1\C(=O)Nc2ccccc21.O=C(O)C(F)(F)F [NCGC00229539-01] | 11.2
O=C(O)C(F)(F)F.O=C(O)c1ccc(-c2ccc3ncnc(N4CCOCC4)c3c2)o1 [NCGC00229619-01] | 5.6
O=C(O)C(F)(F)F.O=C1CCCC2=C1C(c1n[nH]cc1Cl)NC(Nc1nc3ccccc3o1)=N2 (centres unmarked) [NCGC00238624-04] | 35.5
